# Data published in patent US11254663B2 (BRISTOL-MYERS SQUIBB COMPANY, priority 2019, dated 2022).
# Tested on: not given
# Assay: not given
# Conditions: T2DM patients with NAFLD, 6-week clinical trial; cited from earlier work
Structure (SMILES),body weight,insulin sensitivity
"CC[C@H]1[C@@H](O)[C@@H]2[C@H](CC[C@]3(C)[C@@H]([C@H](C)CCC(=O)O)CC[C@@H]23)[C@@]2(C)CC[C@@H](O)C[C@@H]12 [OCA, obeticholic acid]",reduced body weight,statistically significantly improved insulin sensitivity

# Target: FXR (Homo sapiens (Human), UniProt Q96RI1)
# Assay: FXR EC50 (FXR agonist potency reported with each Example)
# Assay type: cell-based
# Conditions: not given
# FXR, sequence (Q96RI1 262-486): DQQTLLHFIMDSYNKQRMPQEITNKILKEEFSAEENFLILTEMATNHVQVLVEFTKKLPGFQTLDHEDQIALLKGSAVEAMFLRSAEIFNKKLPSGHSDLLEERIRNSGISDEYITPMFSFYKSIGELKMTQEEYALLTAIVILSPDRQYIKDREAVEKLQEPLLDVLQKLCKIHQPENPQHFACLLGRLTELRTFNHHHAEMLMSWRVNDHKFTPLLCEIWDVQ
row,Structure (SMILES),EC50
1,"O=C(C1CC(F)(F)C1)N(CC12CCC(c3nc(C4CC4)cs3)(CC1)CC2)c1cccc(-c2nc(C3CC3)no2)c1 [Example 101, N-(3-(3-cyclopropyl-1,2,4-oxadiazol-5-yl)phenyl)-N-((4-(4-cyclopropylthiazol-2-yl)bicyclo[2.2.2]octan-1-yl)methyl)-3,3-difluorocyclobutane-1-carboxamide]",635 nM
2,"O=C(C1CC(C(F)F)C1)N(CC12CCC(c3nc(C4CC4)no3)(CC1)CC2)c1cccc(-c2nc(C(F)F)co2)c1 (stereo not drawn) [Example 43, N-((4-(3-cyclopropyl-1,2,4-oxadiazol-5-yl)bicyclo[2.2.2]octan-1-yl)methyl)-3-(difluoromethyl)-N-(3-(4-(difluoromethyl)oxazol-2-yl)phenyl)cyclobutane-1-carboxamide]",851 nM
3,"CC(C)(O)c1nc(-c2cccc(N(CC34CCC(c5nc(C6CC6)no5)(CC3)CC4)C(=O)C34CC(F)(C3)C4)c2)cs1 [Example 31, N-((4-(3-cyclopropyl-1,2,4-oxadiazol-5-yl)bicyclo[2.2.2]octan-1-yl)methyl)-3-fluoro-N-(3-(2-(2-hydroxypropan-2-yl)thiazol-4-yl)phenyl)bicyclo[1.1.1]pentane-1-carboxamide]",260 nM
4,"Cn1nc(C2CC2)cc1C12CCC(CN(C(=O)C34CC(F)(C3)C4)c3cccc(-c4nc(C5CC5)no4)c3)(CC1)CC2 [Example 126, N-(3-(3-cyclopropyl-1,2,4-oxadiazol-5-yl)phenyl)-N-((4-(3-cyclopropyl-1-methyl-1H-pyrazol-5-yl)bicyclo[2.2.2]octan-1-yl)methyl)-3-fluorobicyclo[1.1.1]pentane-1-carboxamide]",87 nM
5,"COc1cc(-c2cccc(N(CC34CCC(c5ccc(C(C)(C)C#N)cc5)(CC3)OC4)C(=O)C34CC(F)(C3)C4)c2)ccn1 [Example 222, N-((1-(4-(2-cyanopropan-2-yl)phenyl)-2-oxabicyclo[2.2.2]octan-4-yl)methyl)-3-fluoro-N-(3-(2-methoxypyridin-4-yl)phenyl)bicyclo[1.1.1]pentane-1-carboxamide]",285 nM
6,"COc1ncc(C23CCC(CN(C(=O)C45CC(F)(C4)C5)c4cccc(-c5nc(C6CC6)no5)c4)(CC2)CO3)cn1 [Example 140, N-(3-(3-Cyclopropyl-1,2,4-oxadiazol-5-yl)phenyl)-3-fluoro-N-((1-(2-methoxypyrimidin-5-yl)-2-oxabicyclo[2.2.2]octan-4-yl)methyl)bicyclo[1.1.1]pentane-1-carboxamide]",582 nM
7,"O=C(N(CC12CCC(c3nc(C4CC4)no3)(CC1)CC2)c1cccc(-c2csc(CCl)n2)c1)C12CC(F)(C1)C2 [Example 30, N-(3-(2-(chloromethyl)thiazol-4-yl)phenyl)-N-((4-(3-cyclopropyl-1,2,4-oxadiazol-5-yl)bicyclo[2.2.2]octan-1-yl)methyl)-3-fluorobicyclo[1.1.1]pentane-1-carboxamide]",112 nM
8,"CCc1noc(-c2cccc(N(CC34CCC(c5nc(C6CC6)no5)(CC3)CC4)C(=O)C3CC(C(F)F)C3)c2)n1 (stereo not drawn) [Example 4, N-((4-(3-cyclopropyl-1,2,4-oxadiazol-5-yl)bicyclo[2.2.2]octan-1-yl)methyl)-3-(difluoromethyl)-N-(3-(3-ethyl-1,2,4-oxadiazol-5-yl)phenyl)cyclobutane-1-carboxamide]",322 nM
9,"O=C(C1CCC(F)(F)C1)N(CC12CCC(c3nc(C4CC4)no3)(CC1)CC2)c1cccc(-c2nc(C3CC3)no2)c1 (stereo not drawn) [Example 11, N-((4-(3-cyclopropyl-1,2,4-oxadiazol-5-yl)bicyclo[2.2.2]octan-1-yl)methyl)-N-(3-(3-cyclopropyl-1,2,4-oxadiazol-5-yl)phenyl)-3,3-difluorocyclopentane-1-carboxamide]",282 nM
10,"O=C(C1CC(O)(C(F)(F)F)C1)N(CC12CCC(c3nc(C4CC4)no3)(CC1)CC2)c1cccc(-c2cnc(C3CC3)o2)c1 [Example 21, (1S,3S)—N-((4-(3-cyclopropyl-1,2,4-oxadiazol-5-yl)bicyclo[2.2.2]octan-1-yl)methyl)-N-(3-(2-cyclopropyloxazol-5-yl)phenyl)-3-hydroxy-3-(trifluoromethyl)cyclobutane-1-carboxamide]",80 nM
11,"N#CC1(c2ccc(C34CCC(CN(C(=O)C5CC(F)(F)C5)c5cccc(-c6nc(C7CC7)no6)c5)(CC3)CO4)cc2)CC1 [Example 145, N-((1-(4-(1-cyanocyclopropyl)phenyl)-2-oxabicyclo[2.2.2]octan-4-yl)methyl)-N-(3-(3-cyclopropyl-1,2,4-oxadiazol-5-yl)phenyl)-3,3-difluorocyclobutane-1-carboxamide]",4320 nM
12,"O=C(N(CC12CCC(c3nc(C4CC4)cs3)(CC1)CC2)c1cccc(-c2nc(C3CC3)no2)c1)C12CC(F)(C1)C2 [Example 100, N-(3-(3-cyclopropyl-1,2,4-oxadiazol-5-yl)phenyl)-N-((4-(4-cyclopropylthiazol-2-yl)bicyclo[2.2.2]octan-1-yl)methyl)-3-fluorobicyclo[1.1.1]pentane-1-carboxamide]",164 nM
13,"COc1cc(-c2cccc(N(CC34CCC(c5nc(C6CCOCC6)no5)(CC3)CC4)C(=O)C34CC(F)(C3)C4)c2)ccn1 [Example 227, 3-Fluoro-N-(3-(2-methoxypyridin-4-yl)phenyl)-N-((4-(3-(tetrahydro-2H-pyran-4-yl)-1,2,4-oxadiazol-5-yl)bicyclo[2.2.2]octan-1-yl)methyl)bicyclo[1.1.1]pentane-1-carboxamide]",377 nM
14,"CC1(c2nc(-c3cccc(N(CC45CCC(c6noc(C7(C)COC7)n6)(CC4)CC5)C(=O)C45CC(F)(C4)C5)c3)no2)CC1 [Example 180, 3-fluoro-N-(3-(5-(1-methylcyclopropyl)-1,2,4-oxadiazol-3-yl)phenyl)-N-((4-(5-(3-methyloxetan-3-yl)-1,2,4-oxadiazol-3-yl)bicyclo[2.2.2]octan-1-yl)methyl) bicyclo[1.1.1]pentane-1-carboxamide]",83 nM
15,"COc1cc(-c2cccc(N(CC34CCC(c5ccc(C(C)(C)C#N)cc5)(CC3)OC4)C(=O)C3CCC3)c2)ccn1 [Example 223, N-((1-(4-(2-cyanopropan-2-yl)phenyl)-2-oxabicyclo[2.2.2]octan-4-yl)methyl)-N-(3-(2-methoxypyridin-4-yl)phenyl)cyclobutanecarboxamide]",313 nM

# Tested on: not given
# Assay: not given
# Conditions: patients with NASH, 72-week clinical trial; cited from earlier work
row,Structure (SMILES),"hepatic steatosis, lobular inflammation, hepatocyte ballooning, and fibrosis as assessed by histological analyses of liver biopsies"
1,"CC[C@H]1[C@@H](O)[C@@H]2[C@H](CC[C@]3(C)[C@@H]([C@H](C)CCC(=O)O)CC[C@@H]23)[C@@]2(C)CC[C@@H](O)C[C@@H]12 [OCA, obeticholic acid]","statistically significantly improved hepatic steatosis, lobular inflammation, hepatocyte ballooning, and fibrosis"
